≈ marks a conversion by molar mass, not a printed value. Like-named read-outs stand apart in the source and are kept apart here.
Assays:
[1] = test system: HCMV recombinant mutant virus whose genome contains the prokaryotic beta-glucuronidase gene; assay: microbe, parasite or virus in culture; type: cell-based, human cytomegalovirus; settings: for IC50: Human betaherpesvirus 5, Fibroblast
Procedure, shortened: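 Antiviral IC50 estimated from reduced reporter activity across compound amounts: lysates prepared 96 h after infection were tested with p-nitrophenyl- or methylumbelliferyl-glucuronide. Cells were human foreskin fibroblasts, infected alongside inhibitor with HCMV (e.g. RV145) expressing viral promoter-driven beta-glucuronidase.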

[2] = test system: HSV- I; assay: HSV antiviral (ELISA) assay; type: cell-based; settings: read-out: IC50 (ug/ml) HSV
Procedure, shortened: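 IC50 from fluorescence versus untreated control in a cell ELISA: anti-glycoprotein D antibody, β-galactosidase-conjugated secondary, 4-methyl umbelliferone read at 365/450 nm. Vero cells (2% FBS DMEM) received compound 30 min pre-infection with HSV-1 at MOI 0.006, fixed ~24 h post-infection.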

[3] = test system: VZV strain Ellen; assay: VZV antiviral (ELISA) assay; type: cell-based
Procedure, shortened: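 HFF cells infected with VZV Ellen at multiplicity below 0.1 overnight, then mixed infected/uninfected cells seeded with compound in DMEM/2% FBS and incubated three days at 37°C, 5% CO2.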

[4] = read-out: IC50 ug/ml HCMV, HCMV, human foreskin fibroblasts
[5] = Human alphaherpesvirus 3, HFF, read-out: % inhibition 10 ug/ml VZV
[6] = Human alphaherpesvirus 3, HFF, read-out: IC50 (ug/ml) VZV
[7] = Human alphaherpesvirus 3, read-out: % inhibition 10 ug/ml VZV, 10 ug/ml, VZV strain Ellen, HFF cells, ELISA
[8] = Human alphaherpesvirus 3, VZV strain Ellen, HFF cells, ELISA, read-out: IC50 (ug/ml) VZV
[9] = Human alphaherpesvirus 3, HFF, read-out: IC50 (ug/ml) VZV, VZV strain Ellen, HFF cells, ELISA

| Structure (SMILES) | IC50 [1, 4] [µg/mL] | IC50 ([2]; HSV- I, Vero cells, ELISA) [µg/mL] | IC50 [3, 6] [µg/mL] | IC50 ([1]; read-out: IC50 ug/ml HCMV) [µg/mL] | IC50 [3, 8] [µg/mL] | other results |
| --- | --- | --- | --- | --- | --- | --- |
| O=C(Nc1ccc(NC(=S)Nc2cc(Cl)cc(Cl)c2)cc1)c1ccccc1F [Example 934, N-{4-[3-(3,5-Dichloro-phenyl)-thioureido]-phenyl}-2-fluoro-benzamide] | > 10 | > 10 | > 10 | – | – | inhibition at 10 µg/mL [3, 5]: 18% |
| O=C(Nc1ccc(NC(=S)Nc2cc(Cl)c(Cl)c(Cl)c2)cc1)c1ccccc1F [Example 937, 2-Fluoro-N-{4-[3-(3,4,5-trichloro-phenyl)-thioureido]-phenyl}-benzamide] | – | 0.7 (≈ 1.49 µM) | – | 2 (≈ 4.27 µM) | > 10 | inhibition at 10 µg/mL [3, 7]: 25% |
| O=C(Nc1ccc(NC(=S)Nc2ccccc2Cl)cc1)c1ccccc1F [Example 948, N-{4-[3-(2-Chloro-phenyl)-thioureido]-phenyl}-2-fluoro-benzamide] | 4 (≈ 10 µM) | 6 (≈ 15 µM) | > 10 | – | – | inhibition at 10 µg/mL [3, 5]: 4% |
| COC(=O)c1cccc(NC(=S)Nc2ccc(NC(=O)c3ccccc3F)cc2)c1 [Example 950, 3-{3-[4-(2-Fluoro-benzoylamino)-phenyl]-thioureido}-benzoic acid methyl ester] | – | 8 (≈ 18.9 µM) | – | > 10 | > 10 | – |
| NC(=O)c1cccc(NC(=S)Nc2ccc(NC(=O)c3ccccc3F)cc2)c1 [Example 952, N-[4-[[[[3-(Aminocarbonyl)phenyl]amino]thioxomethyl]amino]phenyl]-2-fluoro-benzamide] | – | > 10 | – | > 10 | > 10 | inhibition at 10 µg/mL [3, 7]: 22% |
| O=C(Nc1ccc(NC(=S)Nc2cccc([N+](=O)[O-])c2)cc1)c1ccccc1F [Example 959, 2-Fluoro-N-{4-[3-(3-nitro-phenyl)-thioureido]-phenyl}-benzamide] | – | 0.7 (≈ 1.71 µM) | – | > 10 | > 10 | inhibition at 10 µg/mL [3, 7]: 33% |
| O=C(Nc1ccc(NC(=S)Nc2cccc(OC(F)(F)F)c2)cc1)c1ccccc1F [Example 961, 2-Fluoro-N-{4-[3-(3-trifluoromethoxy-phenyl)-thioureido]-phenyl}-benzamide] | – | > 10 | – | > 10 | > 10 | inhibition at 10 µg/mL [3, 7]: 53% |
| O=C(Nc1ccc(NC(=S)Nc2cccc(F)c2)cc1)c1ccccc1F [Example 962, 2-Fluoro-N-{4-[3-(3-fluoro-phenyl)-thioureido]-phenyl}-benzamide] | – | > 10 | – | > 10 | > 10 | inhibition at 10 µg/mL [3, 7]: 10% |
| O=C(O)c1cccc(NC(=S)Nc2ccc(NC(=O)c3ccccc3F)cc2)c1 [Example 963, 3-{3-[4-(2-Fluoro-benzoylamino)-phenyl]-thioureido}-benzoic acid] | – | > 10 | – | > 10 | > 10 | inhibition at 10 µg/mL [3, 7]: 30% |
| O=C(O)c1cccc(NC(=S)Nc2ccc(NC(=O)c3ccco3)cc2)c1 [Example 964, 3-(3-{4-[(Furan-2-carbonyl)-amino]-phenyl}-thioureido)-benzoic acid] | – | > 10 | – | > 10 | > 10 | inhibition at 10 µg/mL [3, 7]: 0% |
| CC(=O)c1cccc(NC(=S)Nc2ccc(NC(=O)c3ccccc3F)cc2)c1 [Example 965, N-{4-[3-(3-Acetyl-phenyl)-thioureido]-pbenyl}-2-fluoro-benzamide] | > 10 | 5 (≈ 12.3 µM) | > 10 | – | – | inhibition at 10 µg/mL [3, 5]: 12% |
| CCCCNS(=O)(=O)c1cccc(NC(=S)Nc2ccc(NC(=O)c3ccccc3F)cc2)c1 [Example 966, N-{4-[3-(3-Butylsulfamoyl-phenyl)-thioureido]-phenyl}-2-fluoro-benzamide] | 2.5 (≈ 4.99 µM) | 7 (≈ 14 µM) | 8 (≈ 16 µM) | – | – | inhibition at 10 µg/mL [3, 5]: 95% |
| O=C(Nc1ccc(NC(=S)Nc2cccc(S(=O)(=O)CCO)c2)cc1)c1ccccc1F [Example 969, 2-Fluoro-N-(4-{3-[3-(2-hydroxy-ethanesulfonyl)-phenyl]-thioureido}-phenyl)-benzamide] | > 10 | > 10 | > 10 | – | – | inhibition at 10 µg/mL [3, 5]: 19% |
| CC(NC(=S)Nc1ccc(NC(=O)c2ccccc2C(F)(F)F)cc1)c1cc2ccccc2o1 (stereo not drawn) [Example 974, N-{4-[3-(1-Benzofuran-2-yl-ethyl)-thioureido]-phenyl}-2-trifluoromethyl-benzamide] | > 10 | – | – | – | – | IC50 ([2]; Vero): > 10 µg/mL; IC50 [3, 9]: > 7.5 µg/mL |
| CC(NC(=S)Nc1ccc(C(=O)Nc2ccc(F)cc2)cc1)c1ccc(F)cc1 (stereo not drawn) [Example 975, N-(4-Fluoro-phenyl)-4-{3-[1-(4-fluoro-phenyl)-ethyl]-thioureido}-benzamide] | – | > 10 | – | > 10 | 0.87 (≈ 2.11 µM) | – |
| CC(NC(=S)Nc1ccc(NC(=O)c2nccc3ccccc23)cc1)c1ccc(F)cc1 (stereo not drawn) [Example 976, Isoquinoline-1-carboxylic acid (4-{3-[1-(4-fluoro-phenyl)-ethyl]-thioureido}-phenyl)-amide] | – | – | – | – | – | IC50 ug/ml HCMV ([1]; HCMV, human foreskin fibroblasts): >10 µg/mL; IC50 ([2]; Vero): > 10 µg/mL; IC50 [3, 9]: 0.04 µg/mL (≈ 0.09 µM) |
| CC(NC(=S)Nc1ccc(NC(=O)c2nccc3ccccc23)cc1)c1cc2ccccc2o1 (stereo not drawn) [Example 977, Isoquinoline-1-carboxylic acid {4-[3-(1-benzofuran-2-yl-ethyl)-thioureido]-phenyl}-amide] | > 10 | – | – | – | – | IC50 ([2]; Vero): > 10 µg/mL; IC50 [3, 9]: 0.05 µg/mL (≈ 0.107 µM) |
| CC(NC(=S)Nc1ccc(NC(=O)c2nccc3ccccc23)cc1)c1ccc(Br)cc1 (stereo not drawn) [Example 978, Isoquinoline-1-carboxylic acid (4-{3-[1-(4-bromo-phenyl)-ethyl]-thioureido}-phenyl)-amide] | 7.8 (≈ 15.4 µM) | – | – | – | – | IC50 ([2]; Vero): > 10 µg/mL; IC50 [3, 9]: 0.04 µg/mL (≈ 0.0791 µM) |
| CC(NC(=S)Nc1ccc(NC(=O)c2nccc3ccccc23)cc1)c1ccc(C#N)cc1 (stereo not drawn) [Example 979, Isoquinoline-1-carboxylic acid (4-{3-[1-(4-cyano-phenyl)-ethyl]-thioureido}-phenyl)-amide] | 3.7 (≈ 8.19 µM) | – | – | – | – | IC50 ([2]; Vero): > 10 µg/mL; IC50 [3, 9]: 0.13 µg/mL (≈ 0.288 µM) |
| CC(NC(=S)Nc1ccc(NC(=O)c2cc3ccccc3o2)cc1)c1ccc(F)cc1 (stereo not drawn) [Example 980, Benzofuran-2-carboxylic acid (4-{3-[1-(4-fluoro-phenyl)-ethyl]-thioureido}-phenyl)-amide] | > 10 | > 10 | 0.15 (≈ 0.346 µM) | – | – | – |
| CC(NC(=S)Nc1ccc(NC(=O)c2cc3ccccc3o2)cc1)c1cc2ccccc2o1 (stereo not drawn) [Example 981, Benzofuran-2-carboxylic acid {4-[3-(1-benzofuran-2-yl-ethyl)-thioureido]-phenyl}-amide] | > 10 | > 10 | 0.2 (≈ 0.439 µM) | – | – | – |
| CC(NC(=S)Nc1ccc(NC(=O)c2cc3ccccc3o2)cc1)c1ccc(Br)cc1 (stereo not drawn) [Example 982, Benzofuran-2-carboxylic acid (4-{3-[1-(4-bromo-phenyl)-ethyl]-thioureido}-phenyl)-amide] | 1.3 (≈ 2.63 µM) | > 10 | 0.1 (≈ 0.202 µM) | – | – | – |
| CC(NC(=S)Nc1ccc(NC(=O)c2cc3ccccc3o2)cc1)c1ccc(C#N)cc1 (stereo not drawn) [Example 983, Benzofuran-2-carboxylic acid (4-{3-[1-(4-cyano-phenyl)-ethyl]-thioureido}-phenyl)-amide] | 1.1 (≈ 2.5 µM) | > 10 | 0.6 (≈ 1.36 µM) | – | – | – |
| CC(NC(=S)Nc1ccc(NC(=O)c2cc3ccccc3cn2)cc1)c1cc2ccccc2o1 (stereo not drawn) [Example 985, Isoquinoline-3-carboxylic acid {4-[3-(1-benzofuran-2-yl-ethyl)-thioureido]-phenyl}-amide] | > 10 | – | – | – | – | IC50 ([2]; Vero): > 10 µg/mL; IC50 [3, 9]: 0.035 µg/mL (≈ 0.075 µM) |
| CC(NC(=S)Nc1ccc(NC(=O)c2cc3ccccc3cn2)cc1)c1ccc(C#N)cc1 (stereo not drawn) [Example 986, Isoquinoline-3-carboxylic acid (4-{3-[1-(4-cyano-phenyl)-ethyl]-thioureido}-phenyl)-amide] | 5.2 (≈ 11.5 µM) | – | – | – | – | IC50 ([2]; Vero): > 10 µg/mL; IC50 [3, 9]: 0.05 µg/mL (≈ 0.111 µM) |
| CC(NC(=S)Nc1ccc(NC(=O)c2cc3ccccc3cn2)cc1)c1ccc(Br)cc1 (stereo not drawn) [Example 987, Isoquinoline-3-carboxylic acid (4-{3-[1-(4-bromo-phenyl)-ethyl]-thioureido}-phenyl)-amide] | 1.5 (≈ 2.97 µM) | – | – | – | – | IC50 ([2]; Vero): 3 µg/mL (≈ 5.94 µM); IC50 [3, 9]: 0.046 µg/mL (≈ 0.091 µM) |
| CC(NC(=S)Nc1ccc(NC(=O)c2cnc3ccccc3c2)cc1)c1ccc(F)cc1 (stereo not drawn) [Example 988, Quinoline-3-carboxylic acid (4-{3-[1-(4-fluoro-phenyl)-ethyl]-thioureido}-phenyl)-amide] | > 10 | > 10 | 3.4 (≈ 7.65 µM) | – | – | – |
| CC(NC(=S)Nc1ccc(NC(=O)c2ccnc3ccccc23)cc1)c1ccc(F)cc1 (stereo not drawn) [Example 989, Quinoline-4-carboxylic acid (4-{3-[1-(4-fluoro-phenyl)-ethyl]-thioureido}-phenyl)-amide] | 2.9 (≈ 6.52 µM) | 4.1 (≈ 9.22 µM) | 3 (≈ 6.75 µM) | – | – | – |
| CC(NC(=S)Nc1ccc(NC(=O)c2ccc3ncccc3c2)cc1)c1ccc(F)cc1 (stereo not drawn) [Example 990, Quinoline-6-carboxylic acid (4-{3-[1-(4-fluoro-phenyl)-ethyl]-thioureido}-phenyl)-amide] | 4.4 (≈ 9.9 µM) | 8.9 (≈ 20 µM) | 3.5 (≈ 7.87 µM) | – | – | – |

Source: EP1137645B1, “ALPHA-METHYLBENZYL-CONTAINING THIOUREA INHIBITORS OF HERPES VIRUSES CONTAINING A […] GROUP” (Wyeth, priority 1998, dated 2000)
